Assay results from article PMC12892976, “Alkylation-based optimization of antifungal FPPS inhibitors yields a potent, broad-spectrum lipophilic zoledronate derivative” (mBio, 2025).

Key:
[1] = test system: C. albicans; experiment: membrane fluidity, TMA-DPH anisotropy; format: cell-based, Candida albicans
Protocol: (§1) Candida albicans cells were incubated for 6 h, and C. neoformans cells were incubated for 9 h at 30°C, washed, then labeled with 2 µM TMA-DPH in PBS for 10 min. […] Mycelia were fixed, and protoplasts were prepared as described previously ([50]). Protoplasts were washed twice and labeled with 2 µM TMA-DPH in PBS for 30 min. For all labeled cultures, parallel and perpendicular fluorescence intensities were measured at 440 nm in a CLARIOstar plate reader (BMG Labtech), and anisotropy was calculated.

[2] = test system: A. fumigatus; experiment: membrane fluidity, TMA-DPH anisotropy; format: cell-based, Aspergillus fumigatus
Protocol: as §1

[3] = test system: C. neoformans; experiment: membrane fluidity, TMA-DPH anisotropy; format: cell-based, Cryptococcus neoformans
Protocol: as §1

[4] = test system: A. fumigatus; experiment: ergosterol quantitation; format: cell-based, Aspergillus fumigatus; conditions: 1× MIC vs no-drug control
Protocol: Treated cultures were incubated at 30°C with shaking for 18 h for C. albicans and A. fumigatus and for 32 h for C. neoformans. Cell membrane ergosterol was then extracted and quantified as described previously ([48]).

[5] = test system: C. albicans; experiment: membrane depolarization, diS-C3(3); format: cell-based, Candida albicans; conditions: diS-C3(3) emission maximum
Protocol: Membrane depolarization was determined using potential-sensitive fluorophore diS-C3(3) (Sigma), as described previously ([51]). Yeast cells and A. fumigatus conidia were treated as described above, then washed with citrate phosphate buffer and labeled with 20 nM diS-C3(3) at a final concentration of 10^6 cells/mL for yeasts and 10^4 conidia/mL for Aspergillus. Cells were transferred to a microplate (Invitrogen), then emission spectra between 560 and 585 nm (λexcitation = 531 nm) were obtained every 12 min for 1 h using a CLARIOstar plate reader (BMG Labtech). The emission λmax was determined at each timepoint.

With CCCCCCCCCCn1cc[n+](CC(O)(P(=O)(O)O)P(=O)(O)O)c1 [10-ZOL, Decyl-zoledronate] as the molecule, how does the “concentration from which anisotropy differs significantly from no-drug control” value [1] read?
Its value is 0.5 × MIC.

What about the “concentration from which anisotropy differs significantly from no-drug control” value [2] of the same molecule?
Its value is 2 × MIC.

What about the “concentration from which anisotropy differs significantly from no-drug control” value [3] of the same molecule?
Its value is 1 × MIC.

What about the membrane ergosterol content [4] of the same molecule?
The membrane ergosterol content was “significant depletion of membrane ergosterol”.

And the membrane depolarization [5]?
Its membrane depolarization is “dose-dependent depolarization effect”.
